Measurements reported in ChEMBL document CHEMBL1148791, “High-throughput screening of drug-brain tissue binding and in silico prediction for assessment of central nervous system drug delivery” (J Med Chem, 2007).

How the values were obtained:
physchem [1] = test: physchem
Description: Acid dissociation constant, pKa of the compound

physchem [2] = details: buffer, pH 7.4
[3] = buffer, pH 7.4
[4] = Fraction unbound ligand in rat brown fat tissue after 20 hrs; format: ADME, tissue-based, Adipose tissue
[5] = Fraction unbound ligand in rat adrenal gland after 20 hrs; format: ADME, tissue-based; details: adrenal gland tissue
[6] = Fraction unbound ligand in rat brain after 20 hrs; format: ADME, tissue-based; details: brain tissue
[7] = Fraction unbound ligand in rat lung after 20 hrs; format: ADME, tissue-based; details: lung tissue

Row | Compound | pKa (physchem [1]) | logD (physchem [2]) | other results
1 | O=C1CC2(CCCC2)CC(=O)N1CCCCN1CCN(c2ncccn2)CC1 [BUSPIRONE] | 7.8 | – | –
2 | NC(=O)N1c2ccccc2C=Cc2ccccc21 [CARBAMAZEPINE] | – | 1.77 | –
3 | CCCC(C)(COC(N)=O)COC(=O)NC(C)C (stereo unspecified) [CARISOPRODOL] | – | 2.4 | –
4 | CN(C)CCCN1c2ccccc2Sc2ccc(Cl)cc21 [CHLORPROMAZINE] | – | 3.7 | –
5 | CN1CCN(C2=Nc3cc(Cl)ccc3Nc3ccccc32)CC1 [CLOZAPINE] | – | 3.46 | –
6 | CN(C)CCC=C1c2ccccc2C=Cc2ccccc21 [CYCLOBENZAPRINE] | 9.69 | 2.92 | –
7 | COCCCC/C(=N\OCCN)c1ccc(C(F)(F)F)cc1 [FLUVOXAMINE] | 9.4 | – | –
8 | O=C(CCCN1CCC(O)(c2ccc(Cl)cc2)CC1)c1ccc(F)cc1 [HALOPERIDOL] | – | 0.18 | –
9 | COc1ccc2c3c1O[C@H]1C(=O)CC[C@H]4[C@@H](C2)N(C)CC[C@]314 [HYDROCODONE] | 8.43 | 3.38 | –
10 | OCCOCCN1CCN(C(c2ccccc2)c2ccc(Cl)cc2)CC1 (stereo unspecified) [HYDROXYZINE] | 7.75 | – | Log D [3]: 0.18
11 | COC(=O)[C@H](c1ccccc1)C1CCCCN1 (stereo partly specified) [METHYLPHENIDATE] | 9.24 | -0.15 | –
12 | Cc1ncc2n1-c1ccc(Cl)cc1C(c1ccccc1F)=NC2 [MIDAZOLAM] | 5.44 | 2.5 | –
13 | CNCCC=C1c2ccccc2CCc2ccccc21 [NORTRIPTYLINE] | 10.4 | 2.23 | –
14 | Fc1ccc([C@@H]2CCNC[C@H]2COc2ccc3c(c2)OCO3)cc1 [PAROXETINE] | 10.1 | 2.27 | –
15 | CC(C)NCC(O)COc1cccc2ccccc12 (stereo unspecified) [PROPRANOLOL] | – | – | fraction unbound at 20 h [4]: 0.097; fraction unbound at 20 h [5]: 0.01; fraction unbound at 20 h [6]: 0.021; fraction unbound at 20 h [7]: 0.053
16 | Cc1nc2n(c(=O)c1CCN1CCC(c3noc4cc(F)ccc34)CC1)CCCC2 [RISPERIDONE] | – | 1.66 | –
17 | O=c1n(CCCN2CCN(c3cccc(Cl)c3)CC2)nc2ccccn12 [TRAZODONE] | 6.73 | 2.97 | –
18 | COc1ccc(C(CN(C)C)C2(O)CCCCC2)cc1 (stereo unspecified) [VENLAFAXINE] | – | 0.88 | –
19 | Cc1ccc(-c2nc3ccc(C)cn3c2CC(=O)N(C)C)cc1 [ZOLPIDEM] | 6.02 | 2.35 | –
